Assay results from patent US20150306107A1, “SAA Derivative Compound Restores eNOS And Inhibits Oxidative Stress-Induced A Diseases In Hypoxia” (JANSFAT BIOTECHNOLOGY CO., LTD., priority 2014, published 2015).
Structures can show the parent of a compound that is named as a salt.

Columns and labels:
sGCα1 [1] = assay: Western blotting of sGCα1 in lung tissue after long-term hypoxia; type: in vivo, rat; conditions: hypoxia 21 days; compared to normoxia control
sGCα1 [2] = assay: Western blotting of sGCα1 expression in isolated pulmonary artery, short-term hypoxia; type: cell-based, rat
Method: (§1) In our in vitro short-term experiment, isolated rat pulmonary artery was grown under normoxia (20% O2) or hypoxia (1% O2) at 37° C. for 24 hrs as was previously done (Wu BN, et al. Int J Immunopathol Pharmacol 24:925, 2011). The heart weight and body weight ratio (HW/BW) of the rats treated with one of SPAAX-1, SPAAX-1 RX complex, Sildenafil or Sildenafil RX complex each measured on the 21st hypoxic day. All animal care and the experimental protocols of this study were approved by the Animal Care and Use Committee of the Kaohsiung Medical University. Male Wistar rats (200-250 g), provided by the National Laboratory Animal Breeding and Research Center (Taipei, Taiwan), were housed under constant temperature and controlled illumination. Food and water were available ad libitum.
Whole right lung tissues of hypoxia-treated and untreated rats were isolated and cut into small strips and placed into an extraction buffer (Tris 10 mM, pH 7.0, NaCl 140 mM, PMSF 2 mM, DTT 5 mM, NP-40 0.5%, pepstatin A 0.05 mM and leupeptin 0.2 mM) for protein extraction, and then centrifuged at 12,500 g for 30 min. To measure the expression levels of the proteins, the total proteins were extracted and Western blotting analysis was performed as described previously (Bivalacqua T J, et al., 2013, TJ PLoSONE 8: e68028. doi:10.1371/journal. pone.0068028). […]

VEGF [3] = assay: Western blotting of VEGF in lung tissue after long-term hypoxia; type: in vivo, rat; conditions: hypoxia 21 days; hypoxia 168.9±24.6%
hypoxic rats [4] = assay: Pulmonary artery wall thickness and muscularization (HE staining) after long-term hypoxia; type: in vivo, rat
Method: (§2) The right lobes of the rat lungs and heart of six rats from each group were cut and soaked in formalin, dehydrated through graded alcohols, and embedded in paraffin wax. The lung tissue specimens fixed with formalin (4%) were embedded in paraffin for one hour at 4° C., cut into 4-μm-thick sections, and subjected to H&E staining before examination by light microscope. In our histopathological study, we measured the thickening of the medial wall of the small intrapulmonary arteries under an Eclipse TE2000-S (Nikon) microscope. In the heart tissues, the 4-μm-thick paraffin sections were cut from paraffin-embedded tissue blocks and de-paraffinized by immersion in xylene and rehydrated as previously described (Bivalacqua T J, et al., PLoSONE 8: e68028. doi:10.1371/journal. pone.0068028). The slices were then dyed with H&E. After gently rinsing with water, each slide was dehydrated through graded alcohols and finally soaked in xylene twice. The relative cardiac weight of right ventricle (RV)/[left ventricle (LV)+intraventricular septum (S)] ratio (i.e. right heart index) was calculated using right ventricle/left ventricle+septum (RV/LV+S). Measurements were obtained with Histolab software (Microvision Instruments, Evry, France).

eNOS [5] = assay: Western blotting of eNOS in lung tissue after long-term hypoxia; type: in vivo, rat; conditions: hypoxia 21 days; compared to normoxia control
eNOS [6] = assay: Immunohistochemistry of eNOS in pulmonary artery wall after long-term hypoxia; type: in vivo, rat
Method: (§3) For histological analysis, the rat pulmonary right lung sections or pulmonary artery were fixed in 4% formaldehyde for 1 hour at 4° C. After washing with phosphate buffer saline (PBS), they were sent for paraffin-embedded serial-sections. Serial cross-sections 7 μm thick were obtained from the cross-section of each pulmonary artery. Tissue sections were deparaffinized and rehydrated in an ethanol series. After tissue rehydration, endogenous peroxidase activity was quenched with 3% hydrogen peroxide for 30 minutes, and the sections were gently washed in PBS. Non-specific binding was blocked by incubation with 1% nonimmune bovine serum albumin (BSA) in PBS for 30 minutes at room temperature.
(§4) The tissue sections were incubated for 1 hour at room temperature with antibody against VEGF (ab1442, Millipore) or against eNOS (ab5589, Abcam) diluted 1:200 in PBS with 1% BSA. After being washed with PBS, the sections were incubated for 1 hour at room temperature with biotinylated goat antibody against rabbit (Dako, E-0432) and diluted 1:200 in PBS for 30 minutes at room temperature. The reaction was visualized by the addition of 3-3-diaminobenzidine (DAB) in a working solution of DAB substrate kit for peroxidase (vector lab, SK-4100) at room temperature for 5 minutes. The sections were washed in PBS for 10 minutes between each step, and counterstained with haematoxylin. […]

ROCK II [7] = assay: Western blotting of ROCK II in lung tissue after long-term hypoxia; type: in vivo, rat; conditions: hypoxia 21 days; hypoxia 144.7±12.6%
hypoxic rats [8] = assay: Right ventricular hypertrophy (RV/LV+S, right heart index) after long-term hypoxia; type: in vivo, rat; conditions: compared to the hypoxia state
Method: as §2

[9] = system: reactive oxygen species (ROS) of lung tissues; conditions: long-term hypoxia
Method: In our in vivo hypoxic experiments, 10-week old male Wistar rats were equally divided into four groups: a normoxia group, a hypoxia group, a hypoxia+SPAAX-1 or SPAAX-1 RX complex group, and a hypoxia+Sildenafil or Sildenafil RX complex group. All the rats were maintained on a 12-h light/12-hr dark cycle at 25±1° C. and were provided with food and water ad libitum. The normoxia group was housed in standard normoxic conditions and the other three treated groups were continuously housed in a hypoxic chamber (10% O2) for 21 days, except for a 30-min interval each day when the chamber was cleaned (FIG. 2). During which, a normoxic gas mixture was prepared from compressed air.
Pulmonary ROS was measured using 2′-7′-dichloro-fluorescein (H2DCF-DA, Molecular Probe, USA). Briefly, 10 μl of lung tissue extract was diluted 100-fold with cold PBS and labelled with 5 μmol/L 2′-7′-dichlorofluorescein, and the mixture was incubated at 37° C. for 30 minutes and put in a centrifuge (1000 rpm) for 5 min. Fluorescence was measured at 485 nm excitation and 530 nm emission to determine the concentration of H2O2 (FLUOstar Galaxy, Germany).

eNOS [10] = assay: Western blotting of eNOS expression in isolated rat pulmonary artery ring, short-term (acute) hypoxia or normoxia; type: cell-based; conditions: acute hypoxia
Method: as §1
(§5) Whole right lung tissues of hypoxia-treated and untreated rats were isolated and cut into small strips and placed into an extraction buffer (Tris 10 mM, pH 7.0, NaCl 140 mM, PMSF 2 mM, DTT 5 mM, NP-40 0.5%, pepstatin A 0.05 mM and leupeptin 0.2 mM) for protein extraction, and then centrifuged at 12,500 g for 30 min. To measure the expression levels of the proteins, the total proteins were extracted and Western blotting analysis was performed as described previously (Bivalacqua T J, et al., 2013, TJ PLoSONE 8: e68028. doi:10.1371/journal. pone.0068028). Briefly, the protein extract was boiled to a ratio of 4:1 with a sample buffer (Tris 100 mM, pH 6.8, glycerol 20%, SDS 4% and bromophenol blue 0.2%). Electrophoresis was performed using 10% SDS-polyacrylamide gel (2 hr, 100 V, 40 mA, […] protein per lane). Separated proteins were transferred to PVDF membranes treated with 5% fat-free milk powder to block the nonspecific IgGs (90 min, 100 V) and incubated for one hour with a specific protein antibody. The blot was then incubated with anti-mouse or anti-goat IgG linked to alkaline phosphatase (1:1000) for 1 hr. Immunoreactive bands were visualized using horseradish peroxidase-conjugated secondary antibodies and subsequent electrochemiluminescence (ECL) detection (GE Healthcare Bio-Sciences Corp., Piscataway, N.J., U.S.A.). Mouse or rabbit monoclonal antibody of eNOS (Upstate, N.Y., U.S.A.), sGCα (Sigma-Adrich, CA, U.S.A., sGCβ (Santa Cruz, Calif., U.S.A.), PDE-5A (BD Tansduction, San Jose, Calif., U.S.A.), PKG (Calbiochem, San Diego, Calif., U.S.A.) ROCKII (Upstate, N.Y., U.S.A.), RhoA (Santa Cruze, Calif., U.S.A.) and the loading control protein β-actin (Sigma-Adrich, MO, U.S.A.) were used in our Western blot analysis.
(§6) The Western blotting analysis measurements were performed as per lung tissue.

PKG = assay: Western blotting of PKG in lung tissue after long-term hypoxia; type: in vivo, rat; conditions: hypoxia 21 days
Method: as §5, with “Mouse or rabbit monoclonal antibody of eNOS (Upstate, N.Y., U.S.A.), sGCα (Sigma-Adrich, CA, U.S.A., sGCβ (Santa Cruz, Calif., U.S.A.), PDE-5A (BD Tansduction, San Jose, Calif., U.S.A.), PKG (Calbiochem, San Diego, Calif., U.S.A.) ROCKII (Upstate, N.Y., U.S.A.), RhoA (Santa Cruze, Calif., U.S.A.) and the loading control protein β-actin (Sigma-Adrich, MO, U.S.A.) were used in our Western blot analysis.” left out

VEGF [11] = assay: Immunohistochemistry of VEGF in pulmonary artery wall after long-term hypoxia; type: in vivo, rat
Method: as §3, §4

VEGF [12] = assay: Western blotting of VEGF expression in isolated rat pulmonary artery ring, short-term (acute) hypoxia; type: cell-based
Method: as §1, §5, §6

hypoxic rats [13] = assay: Hemodynamics of rats with hypoxic PAH, chronic hypoxia 21 days; type: in vivo, rat; conditions: 5 mg/kg/day, p.o.
Description: Int J Immunopathol Pharmacol 24:925, 2011). The heart weight and body weight ratio (HW/BW) of the rats treated with one of […] complex, Sildenafil or Sildenafil RX complex each measured on the 21st hypoxic day. All animal care and the experimental protocols of this study were approved by the Animal Care and Use Committee of the Kaohsiung Medical University. Male Wistar rats (200-250 g), provided by the National Laboratory Animal Breeding and Research Center (Taipei, Taiwan), were housed under constant temperature and controlled illumination. Food and water were available ad libitum. Normoxic rats were housed in room temperature air at normal atmospheric pressure (760 mm Hg). […] After completion of the exposure, tissues were prepared as indicated for contraction measurements, Western blot analysis, RNA extraction, or morphological analysis. […] Their breathing was normal and their body temperature was maintained at 37° C. […] The animals were then sacrificed by the administration of an overdose of urethane.

NOx in lung tissue = conditions: 21 days of hypoxia; control group 100%, hypoxia 59.8±3.7%
Method: All the rats were maintained on a 12-h light/12-hr dark cycle at 25±1° C. and were provided with food and water ad libitum. The normoxia group was housed in standard normoxic conditions and the other three treated groups were continuously housed in a hypoxic chamber (10% O2) for 21 days, except for a 30-min interval each day when the chamber was cleaned (FIG. 2). During which, a normoxic gas mixture was prepared from compressed air.
Production of NO, represented by its metabolite nitrate+nitrite (NOx), in lung tissue extracts was determined using the Griess method (Chung H H et al, Br J Pharmacol 160: 971, 2010; Vascular Pharmacology 53: 239, 2010). The three step Greiss test converts nitrate (NO3^−) into nitrite (NO2^−), resulting in a total NO2^− concentration from a standard calibration curve. The lung tissue extracts were homogenized, washed with PBS and incubated in a lysis buffer in addition to a protease inhibitor cocktail (Sigma, St. Louis, Mo.) to obtain the extracts of lung proteins. […] The samples were then incubated (25° C, 10 min) with Griess reagent [N-(1-naphthyl)-ethylenediamine: 0.2% (w/v), sulphanilamide: 2% (w/v), solubilized in double-distilled water: 95% and phosphoric acid: 5% (v/v)] and the absorbance measured at 540 nm. […]

PDE5A = conditions: hypoxia 21 days; % of the normal level; hypoxia 43.8±12.6%
VEGF [14] = assay: Western blotting of VEGF expression in rat carvenosus strip, acute hypoxia; type: cell-based; design: unit not given here; conditions: Normoxia 100, Hypoxia 170 ± 15
eNOS [15] = assay: Streptozotocin (STZ) induced eNOS down-regulation of rat carvenosa tissue; type: in vivo; conditions: STZ model; 2.5 mg/kg; Control 100, STZ 60 ± 7.3
Method: (§7) Electrophoresis was performed using 10% SDS-polyacrylamide gel (2 hr, 100 V, 40 mA, […] protein per lane). Separated proteins were transferred to PVDF membranes treated with 5% fat-free milk powder to block the nonspecific IgGs (90 min, 100 V) and incubated for one hour with a specific protein antibody. The blot was then incubated with anti-mouse or anti-goat IgG linked to alkaline phosphatase (1:1000) for 1 hr. Immunoreactive bands were visualized using horseradish peroxidase-conjugated secondary antibodies and subsequent electrochemiluminescence (ECL) detection (GE Healthcare Bio-Sciences Corp., Piscataway, N.J., U.S.A.). Mouse or rabbit monoclonal antibody of eNOS (Upstate, N.Y., U.S.A.), sGCα (Sigma-Adrich, CA, U.S.A., sGCβ (Santa Cruz, Calif., U.S.A.), PDE-5A (BD Tansduction, San Jose, Calif., U.S.A.), PKG (Calbiochem, San Diego, Calif., U.S.A.) ROCKII (Upstate, N.Y., U.S.A.), RhoA (Santa Cruze, Calif., U.S.A.) and the loading control protein β-actin (Sigma-Adrich, MO, U.S.A.) were used in our Western blot analysis.

ROCK II [16] = assay: Cigarette smoking-induced Rho/ROCK activation of rat pulmonary artery ring; type: in vivo; conditions: Nebulization (2.5 mM), Non-Smoking control 100, Smoking 540 ± 28
ROCK II [17] = assay: Western blotting of ROCK II expression in isolated rat pulmonary artery ring, short-term (acute) hypoxia or normoxia; type: cell-based; conditions: acute hypoxia; Normoxia 100, Hypoxia 560 ± 21
Method: as §1, §5, §6

eNOS [18] = assay: Western blotting of eNOS expression in rat carvenosus strip, acute hypoxia; type: cell-based; design: unit not given here; conditions: Normoxia 100, Hypoxia 62.4 ± 5.5
ROCK II [19] = assay: Streptozotocin (STZ) induced RhoA/ROCKII activation of rat carvenosa tissue; type: in vivo; conditions: STZ model; 2.5 mg/kg; Control 100, STZ 142 ± 28
Method: as §7

ROCK II [20] = assay: Cigarette smoking-induced Rho/ROCK activation of rat pulmonary artery ring; type: in vivo; conditions: Intraperitoneal (100 mg/kg) 1 h prior to smoke exposure, Non-Smoking control 100, Smoking 530 ± 34
Method: Intraperitoneal SAA complex (100 mg/kg in 200 μl of the solution) or 200 μl of saline (control) were given to animals through intraperitoneal injection 1 h prior to smoke exposure.
as §5

CCCc1nn(C)c2c(=O)[nH]c(-c3cc(S(=O)(=O)N4CCN(C)CC4)ccc3OCC)nc12.O=C1OC(C(O)CO)C(O)=C1O [Sildenafil ascorbate complex]
sGCα1 expression in lung tissue (sGCα1 [1]): 72.0±4.7%
SGC-a in hypoxia (sGCα1 [2]): neither SPAAX-1 ascorbate complex nor Sildenafil ascorbate complex significantly affected
VEGF expression in lung tissue (VEGF [3]): 125.7±22.5%
hypoxia-induced pulmonary artery wall thickness (hypoxic rats [4]; hypoxia 21 days, 5 mg/kg/day, hypoxia 165.8±5.4%): inhibited
muscularizations of distal pulmonary artery (HE staining) (hypoxic rats [4]; hypoxic rats, versus vehicle only): significantly lower
eNOS expression in lung tissue (eNOS [5]): 102.6±7.7%
eNOS immunostaining reactivity of pulmonary artery (eNOS [6]): restored the decay of eNOS
ROCKII expression in lung tissue (ROCK II [7]): 97.4±10.9%
thickness of Right ventricular (hypoxic rats [8]): reduced
hypoxia-induced increase of dichlorofluorescein (ROS of lung tissues) [9]: reduced
eNOS in acute hypoxia (eNOS [10]; isolated pulmonary artery): restored
PKG expression in lung tissue (PKG): 68.7±3.7%
VEGF immunostaining reactivity of pulmonary artery (VEGF [11]): reduced
VEGF in acute hypoxia (VEGF [12]; isolated pulmonary artery): inhibited
BW (body weight) (hypoxic rats [13]): 275.1 ± 10.4 g
MPAP (mean pulmonary arterial pressure) (hypoxic rats [13]; normoxia 12.9 ± 0.9, hypoxia 26.5 ± 0.6): 19.8±0.7 mmHg
levels of NOx in lung tissue (NOx in lung tissue): 84.5±14.2%
PDE5A expression in lung tissue (PDE5A): 109.0±3.8%

CCCc1nn(C)c2c(=O)[nH]c(-c3cc(S(=O)(=O)N4CCN(C)CC4)ccc3OCC)nc12 [Reagent 1004, Sildenafil citrate complex, reference compound]
VEGF expression, Carvenosus (VEGF [14]): 105 ± 9.2
eNOS, Carvanosus tissue (eNOS [15]): 74 ± 6.8%
ROCK II of pulmonary artery ring (ROCK II [16]): 64 ± 3.8
ROCK II expression, Pulmonary Artery Ring (ROCK II [17]): 205 ± 8.5
eNOS expression, Carvenosus (eNOS [18]): 125 ± 6.9
eNOS expression, Pulmonary Artery Ring (eNOS [10]; Normoxia 100, Hypoxia 65.3 ± 7.8): 132 ± 6.6
ROCK II, Carvanosus tissue (ROCK II [19]): 44 ± 3.8%
VEGF expression, Pulmonary Artery Ring (VEGF [12]; Normoxia 100, Hypoxia 175 ± 14): 110 ± 3.8
ROCK II of pulmonary artery ring (ROCK II [20]): 76 ± 6.8
